# Experimental data from article PMC12430303, “Design and Evaluation of Indole-Based Schiff Bases as α-Glucosidase Inhibitors: CNN-Enhanced Docking, MD Simulations, ADMET Profiling, and SAR Analysis” (Molecules, 2025).
# Assays:
# [1] = system: α-Glucosidase from Saccharomyces cerevisiae; assay: α-glucosidase inhibition assay (pNPG substrate); assay type: biochemical; conditions: for % inhibition R1: replicate 1; for % inhibition R3: replicate 3; for % Inhibition: fixed concentration of 100 µM, mean of triplicate (± SD); for Observation (activity level, Table S9) / Observation (inhibition level, Table S7): words, based on % inhibition at 100 µM; for IC50: dose-response, mean ± SD
# Description: The α-glucosidase inhibitory activity of 4a–j was evaluated using a standard enzymatic assay. α-Glucosidase from Saccharomyces cerevisiae was employed as the enzyme source, and p-nitrophenyl-α-D-glucopyranoside (pNPG) served as the substrate. The assay was conducted in a 96-well microplate format at 37 °C in 50 mM phosphate buffer (pH 6.8). Briefly, 10 µL of the test compound (dissolved in DMSO) at various concentrations was mixed with 20 µL of the enzyme solution (1 U/mL) and 50 µL of phosphate buffer. The reaction was initiated by adding 20 µL of pNPG (5 mM), and the mixture was incubated for 30 min. The reaction was terminated by adding 50 µL of 0.1 M Na2CO3, and the absorbance of the released p-nitrophenol was measured at […] using a microplate reader. […] All experiments were performed in triplicate, and the results were expressed as mean ± standard deviation (SD). Statistical significance was evaluated using one-way ANOVA followed by Tukey’s post hoc test.
# [2] = biological target: α-glucosidase; set-up: method as in PMID 26398141; conditions: cited from earlier work
Structure (SMILES),% inhibition R1 ([1]; 100 µM),% inhibition R3 ([1]; 100 µM),% Inhibition [1],"Observation (activity level, Table S9) [1]","Observation (inhibition level, Table S7) [1]",% Inhibition ([1]; 100 µM),IC50 [1],IC50 [2]
"COc1ccc2[nH]c(C(=O)N/N=C/c3nccs3)cc2c1 [4a, (E)-5-Methoxy-N’-(thiazol-2-ylmethylene)-1H-indole-2-carbohydrazide]",41.141%,33.393%,31.75 ± 8.42%,Low activity,Low inhibition,,,
"COc1ccc2[nH]c(C(=O)N/N=C/c3cccnc3)cc2c1 [4b, (E)-5-Methoxy-N’-(pyridin-3-ylmethylene)-1H-indole-2-carbohydrazide]",34.129%,27.265%,,Low activity,Low inhibition,25.37%,,
"COc1ccc2[nH]c(C(=O)N/N=C/c3ccc(O)cc3)cc2c1 [4c, (E)-N’-(4-Hydroxybenzylidene)-5-methoxy-1H-indole-2-carbohydrazide]",39.907%,37.768%,32.51 ± 8.99%,Moderate activity,Moderate inhibition,,,
"COc1ccc2[nH]c(C(=O)N/N=C/c3ccc(O)c([N+](=O)[O-])c3)cc2c1 [4d, (E)-N’-(4-Hydroxy-3-nitrobenzylidene)-5-methoxy-1H-indole-2-carbohydrazide]",37.425%,28.540%,27.97 ± 7.96%,Low activity,Low inhibition,,,
"COc1ccc(/C=N/NC(=O)c2cc3cc(OC)ccc3[nH]2)c(O)c1 [4e, (E)-N’-(2-Hydroxy-4-methoxybenzylidene)-5-methoxy-1H-indole-2-carbohydrazide]",87.826%,81.926%,82.21 ± 4.47%,High activity,Good inhibition,,16.42 ± 0.08 µM,
"COc1ccc2[nH]c(C(=O)N/N=C/c3ccccc3F)cc2c1 [4f, (E)-N’-(2-Fluorobenzylidene)-5-methoxy-1H-indole-2-carbohydrazide]",54.885%,51.513%,50.65 ± 3.86%,Moderate activity,Moderate inhibition,,,
"COc1ccc2[nH]c(C(=O)N/N=C/c3cccc(Br)c3)cc2c1 [4g, (E)-N’-(3-Bromobenzylidene)-5-methoxy-1H-indole-2-carbohydrazide]",92.817%,90.041%,91.06 ± 1.25%,High activity,High inhibition,,10.89 ± 0.08 µM,
"COc1ccc2[nH]c(C(=O)N/N=C/c3ccc([N+](=O)[O-])cc3)cc2c1 [4h, (E)-5-Methoxy-N’-(4-nitrobenzylidene)-1H-indole-2-carbohydrazide]",90.888%,88.949%,89.11 ± 1.39%,High activity,High inhibition,,14.5 ± 0.76 µM,
"COc1ccc2[nH]c(C(=O)N/N=C/c3ccc4ccccc4c3)cc2c1 [4i, (E)-5-Methoxy-N’-(naphthalen-2-ylmethylene)-1H-indole-2-carbohydrazide]",84.106%,84.052%,82.73 ± 1.90%,High activity,Good inhibition,,19.5 ± 1.37 µM,
"COc1ccc2[nH]c(C(=O)N/N=C/c3ccccc3)cc2c1 [4j, (E)-N’-Benzylidene-5-methoxy-1H-indole-2-carbohydrazide]",56.471%,49.039%,53.23 ± 3.11%,Moderate activity,Moderate inhibition,,,
"O=C(N/N=C/c1cc(O)c(O)c(O)c1)c1cc2ccccc2[nH]1 [(E)-N’-(3,4,5-Trihydroxybenzylidene)-1H-indole-2-carbohydrazide]",,,,,,,,2.3 µM
"C[C@H]1O[C@H](O[C@H]2[C@H](O)[C@@H](O)[C@@H](O[C@H]3[C@H](O)[C@@H](O)C(O)O[C@@H]3CO)O[C@@H]2CO)[C@H](O)[C@@H](O)[C@@H]1N[C@H]1C=C(CO)[C@@H](O)[C@H](O)[C@H]1O (stereo partly shown) [Acarbose, acarbose, reference compound]",84.457%,85.609%,84.66 ± 0.71%,,,,,
